Results from ChEMBL document CHEMBL1152804, “Relationship between brain tissue partitioning and microemulsion retention factors of CNS drugs” (J Med Chem, 2009).

What was measured:
[1] = Lipophilicity, log P by microemulsion electrokinetic chromatography; format: physicochemical
[2] = Lipophilicity, log D at pH 7.4 by liquid chromatography; format: physicochemical; details: buffer
[3] = Fraction unbound in rat brain; format: ADME, tissue-based
[4] = Dissociation constant, pKa by capillary electrophoresis; format: physicochemical
[5] = Lipophilicity, log P of the compound; format: physicochemical; details: octanol/water
[6] = Dissociation constant, pKa by mass spectrometry; format: physicochemical

Row | Compound | logP ([1]; read-out: logP) | logD [2] | logP ([5]; read-out: logP) | further results
1 | CNS(=O)(=O)Cc1ccc2[nH]cc(CCN(C)C)c2c1 | 1.41 | < 0 |  | fraction unbound [3]: 0.724; pKa [4]: 9.68
2 | C=CCc1ccccc1OCC(O)CNC(C)C (stereo not given) [ALPRENOLOL] | 3.57 |  | 2.99 | 
3 | NC12CC3CC(CC(C3)C1)C2 [AMANTADINE] | 2.82 | < 0 |  | fraction unbound [3]: 0.233
4 | Clc1ccc2c(c1)C(N1CCNCC1)=Nc1ccccc1O2 [AMOXAPINE] | 3.71 | 2.4 |  | pKa [6]: 3.38; fraction unbound [3]: 0.01; pKa [4]: 8.71
5 | CCOC(=O)c1ccc(N)cc1 [BENZOCAINE] | 1.79 |  | 1.89 | 
6 | c1ccc(-c2ccc(C(c3ccccc3)n3ccnc3)cc2)cc1 (stereo not given) [BIFONAZOLE] | 5.56 |  |  | 
7 | CC(NC(C)(C)C)C(=O)c1cccc(Cl)c1 (stereo not given) [BUPROPION] | 3.76 |  | 3.21 | 
8 | NC(=O)N1c2ccccc2C=Cc2ccccc21 [CARBAMAZEPINE] | 2.29 |  | 2.34 | 
9 | CCCC(C)(COC(N)=O)COC(=O)NC(C)C (stereo not given) [CARISOPRODOL] | 2.4 |  |  | 
10 | CN(C)CCCN1c2ccccc2Sc2ccc(Cl)cc21 [CHLORPROMAZINE] |  |  | 4.74 | 
11 | Clc1cccc(Cl)c1N=C1NCCN1 [CLONIDINE] | 1.08 |  | 1.57 | 
12 | CN1CCN(C2=Nc3cc(Cl)ccc3Nc3ccccc32)CC1 [CLOZAPINE] | 3.6 | 3.48 | 4.1 | 
13 | C[C@]12C[C@H](O)[C@H]3[C@@H](CCC4=CC(=O)CC[C@@]43C)[C@@H]1CC[C@@H]2C(=O)CO [CORTICOSTERONE] | 2.9 |  | 2.2 | 
14 | CN(C)CCC=C1c2ccccc2C=Cc2ccccc21 [CYCLOBENZAPRINE] | 4.81 |  |  | 
15 | CN(C)CCC=C1c2ccccc2COc2ccccc21 [DOXEPIN] | 4.07 | 2.3 | 4.29 | fraction unbound [3]: 0.025; pKa [4]: 9.37
16 | CCOC(=O)c1ncn2c1CN(C)C(=O)c1cc(F)ccc1-2 [FLUMAZENIL] | 0.92 |  | 1.64 | 
17 | CC(C)n1c(/C=C/C(O)CC(O)CC(=O)O)c(-c2ccc(F)cc2)c2ccccc21 (stereo not given) [FLUVASTATIN] | 3.92 |  |  | 
18 | O=C(CCCN1CCC(O)(c2ccc(Cl)cc2)CC1)c1ccc(F)cc1 [HALOPERIDOL] | 3.53 |  | 3.67 | 
19 | C[C@]12CCC(=O)C=C1CC[C@@H]1[C@@H]2[C@@H](O)C[C@@]2(C)[C@H]1CC[C@]2(O)C(=O)CO [HYDROCORTISONE] | 2.38 |  | 1.65 | 
20 | OCCOCCN1CCN(C(c2ccccc2)c2ccc(Cl)cc2)CC1 (stereo not given) [HYDROXYZINE] |  | 3.6 |  | logP [1]: 4
21 | O=C(c1ccccc1)c1ccc2n1CCC2C(=O)O (stereo not given) [KETOROLAC] |  |  |  | logP [1]: 1.68; logP [5]: 1.26
22 | Nc1nnc(-c2cccc(Cl)c2Cl)c(N)n1 [LAMOTRIGINE] | 1.6 | < 0 |  | 
23 | CN1CCN(C2=Nc3ccccc3Oc3ccc(Cl)cc32)CC1 [LOXAPINE] |  |  |  | fraction unbound [3]: 0.011
24 | CNCCCC12CCC(c3ccccc31)c1ccccc12 [MAPROTILINE] | 4.67 |  |  | fraction unbound [3]: 0.006; pKa [4]: 10.6
25 | COC(=O)Nc1nc2ccc(C(=O)c3ccccc3)cc2[nH]1 [MEBENDAZOLE] | 2.26 |  | 2.42 | 
26 | CN1CCCCC1CCN1c2ccccc2Sc2ccc([S+](C)[O-])cc21 (stereo not given) [MESORIDAZINE] | 4.26 | 1.7 |  | fraction unbound [3]: 0.016; pKa [4]: 9.61
27 | COC(=O)C(c1ccccc1)C1CCCCN1 (stereo not given) [METHYLPHENIDATE] | 2.67 | 0.4 |  | 

Row | Compound | logP ([1]; read-out: logP) | logD [2] | logP ([5]; read-out: logP) | further results
28 | CCN(CC)CCNC(=O)c1cc(Cl)c(N)cc1OC [METOCLOPRAMIDE] |  |  |  | fraction unbound [3]: 0.365
29 | COCCc1ccc(OCC(O)CNC(C)C)cc1 (stereo not given) [METOPROLOL] | 2.08 |  |  | 
30 | Cc1ncc2n1-c1ccc(Cl)cc1C(c1ccccc1F)=NC2 [MIDAZOLAM] | 3.65 | 3.38 |  | 
31 | CN1CCN2c3ncccc3Cc3ccccc3C2C1 (stereo not given) [MIRTAZAPINE] | 3.48 | 2.3 |  | pKa [6]: 3.59; fraction unbound [3]: 0.08; pKa [4]: 7.79
32 | CN1CCOC(c2ccccc2)c2ccccc2C1 (stereo not given) [NEFOPAM] | 3.2 |  | 3.02 | 
33 | CN1CCC[C@H]1c1cccnc1 [NICOTINE] | 1.22 |  | 1.39 | 
34 | CNCCC=C1c2ccccc2CCc2ccccc21 [NORTRIPTYLINE] | 4.36 | 2.8 | 4.39 | 
35 | Cc1cc2c(s1)Nc1ccccc1N=C2N1CCN(C)CC1 [OLANZAPINE] | 3.21 |  |  | pKa [6]: 4.66; fraction unbound [3]: 0.034; pKa [4]: 8.5
36 | COc1ccc(Cc2nccc3cc(OC)c(OC)cc23)cc1OC [PAPAVERINE] | 2.73 |  |  | 
37 | Fc1ccc([C@@H]2CCNC[C@H]2COc2ccc3c(c2)OCO3)cc1 [PAROXETINE] | 4.07 |  |  | 
38 | CCCN1C[C@H](CSC)C[C@@H]2c3cccc4[nH]cc(c34)C[C@H]21 [PERGOLIDE] | 4.22 | 3 |  | fraction unbound [3]: 0.027; pKa [4]: 8.78
39 | OCCN1CCN(CCCN2c3ccccc3Sc3ccc(Cl)cc32)CC1 [PERPHENAZINE] | 3.83 | 4.1 |  | pKa [6]: 3.72; fraction unbound [3]: 0.004; pKa [4]: 8.04
40 | CC(C)NCC(O)COc1cccc2[nH]ccc12 (stereo not given) [PINDOLOL] | 1.71 |  |  | 
41 | CN1C(C(=O)Nc2ccccn2)=C(O)c2ccccc2S1(=O)=O [PIROXICAM] | 1.45 |  | 1.68 | 
42 | COc1cc(NC(C)CCCN)c2ncccc2c1 (stereo not given) [PRIMAQUINE] |  |  | 3 | logP [1]: 3.8
43 | CCN(CC)CCOC(=O)c1ccc(N)cc1 [PROCAINE] | 2.18 |  | 2.2 | 
44 | COc1ccc(CN(CCN(C)C)c2ccccn2)cc1 [PYRILAMINE] |  |  | 3.12 | 
45 | OCCOCCN1CCN(C2=Nc3ccccc3Sc3ccccc32)CC1 [QUETIAPINE] | 3.54 | 3.4 |  | pKa [6]: 3.64; fraction unbound [3]: 0.025; pKa [4]: 6.91
46 | CNC(=C[N+](=O)[O-])NCCSCc1ccc(CN(C)C)o1 [RANITIDINE] | 1.06 |  | 1.28 | 
47 | Cc1nc2n(c(=O)c1CCN1CCC(c3noc4cc(F)ccc34)CC1)CCCC2 [RISPERIDONE] | 2.86 | 1.71 |  | 
48 | Nc1c2c(nc3ccccc13)CCCC2 [TACRINE] |  |  |  | fraction unbound [3]: 0.124
49 | CCCCNc1ccc(C(=O)OCCN(C)C)cc1 [TETRACAINE] |  |  | 3.46 | 
50 | CSc1ccc2c(c1)N(CCC1CCCCN1C)c1ccccc1S2 (stereo not given) [THIORIDAZINE] |  | 4.4 |  | logP [1]: 4.75; fraction unbound [3]: 0.001
51 | O=c1n(CCCN2CCN(c3cccc(Cl)c3)CC2)nc2ccccn12 [TRAZODONE] | 2.92 | 2.99 |  | 
52 | COc1ccc(C(CN(C)C)C2(O)CCCCC2)cc1 (stereo not given) [VENLAFAXINE] | 3.2 | 1 |  | 
53 | Cc1ccc(-c2nc3ccc(C)cn3c2CC(=O)N(C)C)cc1 [ZOLPIDEM] | 2.2 | 2.3 |  | 
